Experimental data reported in patent US10040781B2, “Tank-binding kinase inhibitor compounds” (Gilead Sciences, Inc., priority 2014, dated 2018).
Read-outs that look alike come from different tables or passages of the source.

What was measured:
IKKε = IKKε (Homo sapiens (Human), UniProt Q14164); assay: IKKε TR-FRET enzymatic assay; assay type: biochemical; conditions: read-out: IKKe IC50
hJAK2 = hJAK2 (Homo sapiens (Human), UniProt O60674); assay: hJAK2 LANCE TR-FRET enzymatic assay; assay type: biochemical; conditions: read-out: JAK2 IC50
TBK1 = TBK1 (Homo sapiens (Human), UniProt Q9UHD2); assay: TBK1 TR-FRET enzymatic assay;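 also: phosphorylation of a biotinylated Ser/Thr peptide by purified full-length recombinant TBK1, read by TR-FRET after 240 min at 25 °C, IC50 is the geometric mean of at least four runs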
[1] = TR-FRET, 2×Km ATP, geometric mean of minimum four determinations

Sequence of TBK1 (Q9UHD2 whole entry): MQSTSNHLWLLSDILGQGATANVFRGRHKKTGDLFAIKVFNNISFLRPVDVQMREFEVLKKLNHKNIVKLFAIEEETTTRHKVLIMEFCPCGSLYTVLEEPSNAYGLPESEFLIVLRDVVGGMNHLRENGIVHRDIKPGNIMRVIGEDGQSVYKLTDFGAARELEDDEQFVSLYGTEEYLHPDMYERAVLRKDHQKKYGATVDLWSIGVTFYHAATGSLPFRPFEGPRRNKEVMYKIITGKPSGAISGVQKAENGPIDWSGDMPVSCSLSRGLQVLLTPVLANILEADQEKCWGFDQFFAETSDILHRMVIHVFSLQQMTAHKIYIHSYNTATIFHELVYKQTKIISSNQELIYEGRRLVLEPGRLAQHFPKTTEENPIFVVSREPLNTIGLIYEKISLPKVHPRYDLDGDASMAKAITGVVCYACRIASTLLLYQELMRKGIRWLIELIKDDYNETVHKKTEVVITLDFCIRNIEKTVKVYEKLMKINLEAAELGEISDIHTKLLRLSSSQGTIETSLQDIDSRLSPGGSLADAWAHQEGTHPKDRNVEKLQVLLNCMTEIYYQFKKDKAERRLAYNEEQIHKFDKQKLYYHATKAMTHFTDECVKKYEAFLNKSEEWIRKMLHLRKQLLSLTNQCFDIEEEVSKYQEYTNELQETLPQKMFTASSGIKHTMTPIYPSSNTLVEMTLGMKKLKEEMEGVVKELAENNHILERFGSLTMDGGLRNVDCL
Sequence of hJAK2 (O60674 whole entry): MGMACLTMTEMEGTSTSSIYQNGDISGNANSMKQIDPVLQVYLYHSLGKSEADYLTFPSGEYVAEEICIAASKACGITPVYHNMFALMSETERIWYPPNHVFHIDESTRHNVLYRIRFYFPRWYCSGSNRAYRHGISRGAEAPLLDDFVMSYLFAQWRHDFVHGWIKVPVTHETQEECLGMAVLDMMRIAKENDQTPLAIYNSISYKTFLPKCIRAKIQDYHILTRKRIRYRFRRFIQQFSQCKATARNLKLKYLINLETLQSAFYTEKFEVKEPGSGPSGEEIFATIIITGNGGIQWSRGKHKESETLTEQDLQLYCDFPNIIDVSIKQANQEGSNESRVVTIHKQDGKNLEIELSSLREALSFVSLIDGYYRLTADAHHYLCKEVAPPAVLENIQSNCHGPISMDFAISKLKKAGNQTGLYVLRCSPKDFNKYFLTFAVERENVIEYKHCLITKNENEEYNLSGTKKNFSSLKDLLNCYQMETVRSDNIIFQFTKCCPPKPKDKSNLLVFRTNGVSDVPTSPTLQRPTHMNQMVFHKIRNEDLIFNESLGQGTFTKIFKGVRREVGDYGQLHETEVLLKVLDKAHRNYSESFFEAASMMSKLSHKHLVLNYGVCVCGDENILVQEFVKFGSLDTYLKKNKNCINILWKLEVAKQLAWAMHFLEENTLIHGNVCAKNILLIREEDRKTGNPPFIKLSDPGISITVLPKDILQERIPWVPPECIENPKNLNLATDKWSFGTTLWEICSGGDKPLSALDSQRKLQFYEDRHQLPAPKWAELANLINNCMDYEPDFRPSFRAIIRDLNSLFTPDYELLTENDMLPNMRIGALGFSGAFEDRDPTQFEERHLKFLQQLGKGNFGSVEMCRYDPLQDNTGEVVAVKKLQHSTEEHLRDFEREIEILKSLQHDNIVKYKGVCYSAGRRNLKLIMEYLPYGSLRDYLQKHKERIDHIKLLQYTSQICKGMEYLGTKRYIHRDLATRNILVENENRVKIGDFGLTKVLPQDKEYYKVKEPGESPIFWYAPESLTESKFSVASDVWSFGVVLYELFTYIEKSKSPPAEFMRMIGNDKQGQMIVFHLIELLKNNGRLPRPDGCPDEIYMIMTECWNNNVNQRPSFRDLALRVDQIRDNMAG
Sequence of IKKε (Q14164 whole entry): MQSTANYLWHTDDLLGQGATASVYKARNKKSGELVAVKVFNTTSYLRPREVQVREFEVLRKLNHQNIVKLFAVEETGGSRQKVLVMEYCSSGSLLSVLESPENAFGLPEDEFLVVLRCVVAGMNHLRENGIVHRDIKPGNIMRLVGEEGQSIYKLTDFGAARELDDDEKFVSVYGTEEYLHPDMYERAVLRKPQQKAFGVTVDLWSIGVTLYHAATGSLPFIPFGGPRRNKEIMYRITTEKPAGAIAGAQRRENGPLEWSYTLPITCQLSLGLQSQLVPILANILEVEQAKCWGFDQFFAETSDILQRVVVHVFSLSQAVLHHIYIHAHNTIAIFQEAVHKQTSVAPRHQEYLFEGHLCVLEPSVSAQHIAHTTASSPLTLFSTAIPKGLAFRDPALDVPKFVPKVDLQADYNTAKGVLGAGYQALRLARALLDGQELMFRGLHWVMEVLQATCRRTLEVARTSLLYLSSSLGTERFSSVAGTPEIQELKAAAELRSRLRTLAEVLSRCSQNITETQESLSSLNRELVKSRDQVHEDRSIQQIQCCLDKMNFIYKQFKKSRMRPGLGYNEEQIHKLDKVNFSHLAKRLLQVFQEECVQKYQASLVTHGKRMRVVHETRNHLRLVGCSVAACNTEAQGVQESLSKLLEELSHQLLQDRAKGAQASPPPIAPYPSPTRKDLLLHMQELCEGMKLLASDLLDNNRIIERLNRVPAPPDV

IC50 (IKKε) | IC50 (hJAK2) | IC50 (TBK1) | IC50 (IKKε; [1]) | Structure (SMILES)
 | 959 nM | 7 nM | 29 nM | C[C@@H]1OC(=O)N[C@@H]1C(=O)N1CC[C@H](Oc2ccc(-c3ncnc(Nc4ccc(N5CCN(C6COC6)CC5)cc4)n3)cc2C#N)[C@H](F)C1 [Example 524, 2-(((3R,4S)-3-fluoro-1-((4S,5S)-5-methyl-2-oxooxazolidine-4-carbonyl)piperidin-4-yl)oxy)-5-(4-((4-(4-(oxetan-3-yl)piperazin-1-yl)phenyl)amino)-1,3,5-triazin-2-yl)benzonitrile]
 | 681 nM | 16 nM | 55 nM | N#Cc1cc(-c2ncnc(Nc3ccc(N4CCN(C5COC5)CC4)cc3)n2)ccc1O[C@H]1CCN(C(=O)N2CC[C@@H](F)C2)C[C@H]1F [Example 423, 2-(((3R,4S)-3-fluoro-1-((R)-3-fluoropyrrolidine-1-carbonyl)piperidin-4-yl)oxy)-5-(4-((4-(4-(oxetan-3-yl)piperazin-1-yl)phenyl)amino)-1,3,5-triazin-2-yl)benzonitrile]
18 nM | 261 nM | 5 nM |  | N#Cc1cc(-c2ncnc(Nc3ccc(N4CCOCC4)cc3)n2)ccc1N1CCCC1 [Example 53, 5-(4-((4-morpholinophenyl)amino)-1,3,5-triazin-2-yl)-2-(pyrrolidin-1-yl)benzonitrile]
1 nM | 104 nM | 2 nM |  | N#Cc1cc(-c2ncnc(Nc3ccc(N4CCN(C5COC5)CC4)cc3)n2)ccc1O[C@H]1CCN(C(=O)c2nnc[nH]2)C[C@H]1F [Example 144, 2-(((3R,4S)-3-fluoro-1-(4H-1,2,4-triazole-3-carbonyl)piperidin-4-yl)oxy)-5-(4-((4-(4-(oxetan-3-yl)piperazin-1-yl)phenyl)amino)-1,3,5-triazin-2-yl)benzonitrile]
 | 171 nM | 4 nM | 4 nM | N#CCC(=O)N1CC[C@H](Oc2ccc(-c3ncnc(Nc4ccc(N5CCO[C@@H](CO)C5)cc4)n3)cc2C#N)[C@H](F)C1 [Example 467, 2-(((3R,4S)-1-(2-cyanoacetyl)-3-fluoropiperidin-4-yl)oxy)-5-(4-((4-((R)-2-(hydroxymethyl)morpholino)phenyl)amino)-1,3,5-triazin-2-yl)benzonitrile]
 | ≥ 1000 nM | 12 nM | 44 nM | C[C@H](O)CC(=O)N1CC[C@H](Oc2ccc(-c3ncnc(Nc4ccc(N5CCN(C6COC6)CC5)cc4)n3)cc2C#N)[C@H](F)C1 [Example 470, 2-(((3R,4S)-3-fluoro-1-((S)-3-hydroxybutanoyl)piperidin-4-yl)oxy)-5-(4-((4-(4-(oxetan-3-yl)piperazin-1-yl)phenyl)amino)-1,3,5-triazin-2-yl)benzonitrile]
 | ≥ 1000 nM | 95 nM | 131 nM | N#Cc1cc(-c2ncnc(Nc3ccc(N4CCN(C5COC5)CC4)cc3)n2)ccc1OCCC1CNC(=O)C1 (stereo not drawn) [Example 597, 5-(4-((4-(4-(oxetan-3-yl)piperazin-1-yl)phenyl)amino)-1,3,5-triazin-2-yl)-2-(2-(5-oxopyrrolidin-3-yl)ethoxy)benzonitrile]
21 nM | ≥ 1000 nM | 12 nM |  | C[C@H]1C[C@H](Oc2ccc(-c3ncnc(Nc4ccc(N5CCN(C6COC6)CC5)cc4)n3)cc2C#N)[C@H](F)CN1C(=O)CO [Example 115, 2-(((2S,4S,5R)-5-fluoro-1-(2-hydroxyacetyl)-2-methylpiperidin-4-yl)oxy)-5-(4-((4-(4-(oxetan-3-yl)piperazin-1-yl)phenyl)amino)-1,3,5-triazin-2-yl)benzonitrile]
 | 658 nM | 474 nM | ≥ 1000 nM | N#Cc1cc(OC[C@H]2CCN(C(=O)CO)C2)cc(-c2ncnc(Nc3ccc(N4CCN(C5COC5)CC4)cc3)n2)c1 [Example 591, (S)-3-((1-(2-hydroxyacetyl)pyrrolidin-3-yl)methoxy)-5-(4-((4-(4-(oxetan-3-yl)piperazin-1-yl)phenyl)amino)-1,3,5-triazin-2-yl)benzonitrile]
 | 48 nM | 3 nM | 3 nM | CC1(C)CN(C(=O)CC#N)C[C@@H](F)[C@H]1Oc1ccc(-c2ncnc(Nc3ccc(N4CCN(C5COC5)CC4)cc3)n2)cc1C#N [Example 450, 2-(((4S,5R)-1-(2-cyanoacetyl)-5-fluoro-3,3-dimethylpiperidin-4-yl)oxy)-5-(4-((4-(4-(oxetan-3-yl)piperazin-1-yl)phenyl)amino)-1,3,5-triazin-2-yl)benzonitrile]
37 nM | 292 nM | 7 nM |  | N#CCC(=O)N1CC[C@@H](Oc2ccc(-c3ncnc(Nc4ccc(N5CCN(C6COC6)CC5)cc4)n3)cc2C#N)C1 [Example 90, (R)-2-((1-(2-cyanoacetyl)pyrrolidin-3-yl)oxy)-5-(4-((4-(4-(oxetan-3-yl)piperazin-1-yl)phenyl)amino)-1,3,5-triazin-2-yl)benzonitrile]
53 nM | 68 nM | 28 nM |  | CS(=O)(=O)C1CN(c2ccc(-c3ncnc(Nc4ccc(N5CCN(C6COC6)CC5)cc4)n3)cc2C#N)C1 [Example 272, 2-(3-(methylsulfonyl)azetidin-1-yl)-5-(4-((4-(4-(oxetan-3-yl)piperazin-1-yl)phenyl)amino)-1,3,5-triazin-2-yl)benzonitrile]

Continued, compound first:

Structure (SMILES) | IC50 (IKKε) | IC50 (hJAK2) | IC50 (TBK1) | IC50 (IKKε; [1])
C[C@@H](O)C(=O)N1CC[C@H](Oc2ccc(-c3ncnc(Nc4ccc(N5CCN(C6COC6)CC5)cc4)n3)cc2C#N)C[C@@H]1C [Example 182, 2-(((2S,4S)-1-((R)-2-hydroxypropanoyl)-2-methylpiperidin-4-yl)oxy)-5-(4-((4-(4-(oxetan-3-yl)piperazin-1-yl)phenyl)amino)-1,3,5-triazin-2-yl)benzonitrile] | 95 nM | 491 nM | 32 nM | 
N#Cc1cc(-c2ncnc(Nc3ccc(N4CCN(C=O)CC4)c(F)c3)n2)ccc1O[C@H]1CCOC[C@H]1F [Example 299, 5-(4-((3-fluoro-4-(4-formylpiperazin-1-yl)phenyl)amino)-1,3,5-triazin-2-yl)-2-(((3R,4S)-3-fluorotetrahydro-2H-pyran-4-yl)oxy)benzonitrile] | 8 nM | 401 nM | 4 nM | 
N#Cc1cc(-c2ncnc(Nc3ccc(N4CCN(C5COC5)CC4)cc3)n2)ccc1O[C@H]1C[C@@H]2C[C@H]1N(C(=O)CO)C2 [Example 102, 2-(((1R,4S,6S)-2-(2-hydroxyacetyl)-2-azabicyclo[2.2.1]heptan-6-yl)oxy)-5-(4-((4-(4-(oxetan-3-yl)piperazin-1-yl)phenyl)amino)-1,3,5-triazin-2-yl)benzonitrile] | 24 nM | 380 nM | 11 nM | 
C[C@H](O)C(=O)N1CC[C@H](Oc2ccc(-c3ncnc(Nc4ccc(N5CCN(C6(C)COC6)CC5)cc4)n3)cc2C#N)[C@H](F)C1 [Example 312, 2-(((3R,4S)-3-fluoro-1-((S)-2-hydroxypropanoyl)piperidin-4-yl)oxy)-5-(4-((4-(4-(3-methyloxetan-3-yl)piperazin-1-yl)phenyl)amino)-1,3,5-triazin-2-yl)benzonitrile] | 3 nM | 636 nM | 3 nM | 
Cc1cc(Nc2ncnc(-c3ccc(O[C@H]4CCN(C(=O)c5cn(C)nn5)C[C@H]4F)c(C#N)c3)n2)ccc1C1CCN(C)CC1 [Example 485, 2-(((3R,4S)-3-fluoro-1-(1-methyl-1H-1,2,3-triazole-4-carbonyl)piperidin-4-yl)oxy)-5-(4-((3-methyl-4-(1-methylpiperidin-4-yl)phenyl)amino)-1,3,5-triazin-2-yl)benzonitrile] |  | 576 nM | 3 nM | 1 nM
C[C@H]1CN(C2COC2)CCN1c1ccc(Nc2ncnc(-c3ccc(O[C@H]4CCN(C(=O)CC#N)CC4(F)F)c(C#N)c3)n2)cc1 [Example 253, 2-(((S)-1-(2-cyanoacetyl)-3,3-difluoropiperidin-4-yl)oxy)-5-(4-((4-((S)-2-methyl-4-(oxetan-3-yl)piperazin-1-yl)phenyl)amino)-1,3,5-triazin-2-yl)benzonitrile] | 2 nM | 61 nM | 3 nM | 
Cc1cc(-c2ncnc(Nc3ccc(N4CCN(C5COC5)CC4)cc3)n2)cc(C#N)c1O[C@H]1CCN(C(=O)[C@H](C)O)C[C@H]1F [Example 521, 2-(((3R,4S)-3-fluoro-1-((S)-2-hydroxypropanoyl)piperidin-4-yl)oxy)-3-methyl-5-(4-((4-(4-(oxetan-3-yl)piperazin-1-yl)phenyl)amino)-1,3,5-triazin-2-yl)benzonitrile] |  | ≥ 1000 nM | 16 nM | 39 nM
N#Cc1cc(-c2ncnc(Nc3ccc(N4CCN(C5COC5)CC4)cc3)n2)ccc1O[C@H]1CCN(C2CCOC2)C[C@H]1F (stereo partly drawn) [Example 110, 2-(((3R,4S)-3-fluoro-1-(tetrahydrofuran-3-yl)piperidin-4-yl)oxy)-5-(4-((4-(4-(oxetan-3-yl)piperazin-1-yl)phenyl)amino)-1,3,5-triazin-2-yl)benzonitrile] | 330 nM | 740 nM | 243 nM | 
CC(C)[C@@H](O)C(=O)N1CC[C@H](Oc2ccc(-c3ncnc(Nc4ccc(N5CCN(C6COC6)CC5)cc4)n3)cc2C#N)[C@H](F)C1 [Example 465, 2-(((3R,4S)-3-fluoro-1-((R)-2-hydroxy-3-methylbutanoyl)piperidin-4-yl)oxy)-5-(4-((4-(4-(oxetan-3-yl)piperazin-1-yl)phenyl)amino)-1,3,5-triazin-2-yl)benzonitrile] |  | 706 nM | 146 nM | 364 nM
CN1C(=O)CC[C@H]1C(=O)N1CC[C@H](Oc2ccc(-c3ncnc(Nc4ccc(N5CCN(C6COC6)CC5)c(F)c4)n3)cc2C#N)[C@H](F)C1 [Example 408, 2-(((3R,4S)-3-fluoro-1-((S)-1-methyl-5-oxopyrrolidine-2-carbonyl)piperidin-4-yl)oxy)-5-(4-((3-fluoro-4-(4-(oxetan-3-yl)piperazin-1-yl)phenyl)amino)-1,3,5-triazin-2-yl)benzonitrile] |  | ≥ 1000 nM | 86 nM | 119 nM
